This is an account of results in patent US20170151192A1, “METHODS, COMPOSITIONS AND DEVICES FOR TREATMENT OF MOTOR AND DEPRESSION SYMPTOMS ASSOCIATED WITH PARKINSON'S DISEASE” (N TO B LTD., priority 2013, published 2017).

The conditions of data set [1]: extensive first pass hepatic metabolism; cited from earlier work.
The target of data set [2] is T1, MAO-A (Rattus norvegicus, UniProt P21396). The following applies: 0.3 mg/kg, 1 hour after treatment. An excerpt:
(§1) Adult (3-month old) male Sprague Dawley rats, weighing about 250 grams, were from Harlan Laboratories, Inc Israel.

For data set [3], the target named is T2, MAO-B (Rattus norvegicus, UniProt P19643). As to conditions: 0.1 and 0.3 mg/kg, 1 hour after treatment.
T2 sequence (P19643 whole entry): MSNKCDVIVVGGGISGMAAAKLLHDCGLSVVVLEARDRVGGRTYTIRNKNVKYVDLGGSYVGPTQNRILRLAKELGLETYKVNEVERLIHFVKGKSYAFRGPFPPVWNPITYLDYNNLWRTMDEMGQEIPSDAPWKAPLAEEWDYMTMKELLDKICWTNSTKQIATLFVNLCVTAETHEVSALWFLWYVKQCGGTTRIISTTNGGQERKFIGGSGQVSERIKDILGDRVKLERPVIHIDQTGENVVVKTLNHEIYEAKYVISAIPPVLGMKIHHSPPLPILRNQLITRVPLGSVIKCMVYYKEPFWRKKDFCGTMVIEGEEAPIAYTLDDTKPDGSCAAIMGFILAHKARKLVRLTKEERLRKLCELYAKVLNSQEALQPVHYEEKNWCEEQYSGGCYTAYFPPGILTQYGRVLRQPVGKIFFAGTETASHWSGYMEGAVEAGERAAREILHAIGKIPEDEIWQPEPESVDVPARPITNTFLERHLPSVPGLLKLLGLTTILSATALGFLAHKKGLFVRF
Text: as §1

In data set [4] the target is T1, MAO-A. The experiment in a line: in vivo. The following applies: for inhibition at 6 mg/kg / inhibition at 0.6 mg/kg / inhibition at 1.5 mg/kg: rat, inhaled or nasal. The procedure:
(§2) Control liquid formulations included vehicle only.
(§3) The animals were acutely administered intranasally and sacrificed 4 hours following drug/vehicle administration. The brain regions, hippocampus and striatum, as well as the small intestine were dissected out. […] In brief, samples were dissected out at 4° C. and homogenized. Homogenates were incubated with [C^14]serotonin for 30 minutes (final concentration 100 μM) as a substrate for MAO-A, or with [C^14]phenylethylamine for 20 minutes (final concentration 100 μM) as a substrate for MAO-B. The radioactivity was determined by liquid- scintillation.

Data set [5] deals with T2, MAO-B. The experiment in a line: in vivo. The procedure:
as §2, §3

In data set [6] the target is T1, MAO-A. Here is the method:
(§4) The animals were acutely administered and sacrificed 4 hours following drug/vehicle administration. The brain regions, hippocampus and striatum, as well as the small intestine were dissected out. All tissues were frozen at −80° C. for further analysis.

Data set [7] has as its target T2, MAO-B. As to conditions: both regimens (intranasal and oral), 0.24 and 0.6 mg/Kg, p<0.05, data not shown. Here is the method:
as §4

Data set [8] concerns pressor responses to oral tyramine. The following applies: rats, cited from earlier work.

Molecules are shown by their SMILES. Read-outs that look alike come from different tables or passages of the source.

T1 sequence (P21396 whole entry): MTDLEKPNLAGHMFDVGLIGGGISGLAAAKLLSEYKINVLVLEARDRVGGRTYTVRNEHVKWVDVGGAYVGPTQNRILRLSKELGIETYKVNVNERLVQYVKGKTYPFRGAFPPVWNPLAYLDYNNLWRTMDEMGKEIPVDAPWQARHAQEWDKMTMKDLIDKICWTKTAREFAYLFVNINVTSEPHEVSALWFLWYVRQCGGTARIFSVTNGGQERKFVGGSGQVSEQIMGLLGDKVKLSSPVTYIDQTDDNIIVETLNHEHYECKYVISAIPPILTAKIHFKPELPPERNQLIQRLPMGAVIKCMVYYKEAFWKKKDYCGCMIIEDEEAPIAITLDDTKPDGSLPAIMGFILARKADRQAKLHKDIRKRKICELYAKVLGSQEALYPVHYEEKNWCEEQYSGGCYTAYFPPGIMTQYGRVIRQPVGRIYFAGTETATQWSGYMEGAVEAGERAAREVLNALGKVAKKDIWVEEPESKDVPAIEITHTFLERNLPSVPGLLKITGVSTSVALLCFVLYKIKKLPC

Consider `C#CCN(C)[C@H](C)Cc1ccccc1` [Selegiline, (R)-N-methyl-N-(1-phenylpropan-2-yl)prop-1-yn-3-amine], for which, in data set [1], the oral bioavailability is listed as 4-10%.
In the case of `C#CCN[C@@H]1CCc2ccccc21` [Rasagiline, N-propargyl-1-(R)-aminoindan], the “brain MAO-A inhibition, NAS delivery compared to IP” value on MAO-A [2] (FIG. 1) is listed as “significantly inhibited”. In addition, at MAO-A [2] (FIG. 3), the “liver MAO-A inhibition, IP compared to NAS delivery” value is on record as “significantly inhibited”. At MAO-B [3] (FIG. 2), the “difference in brain MAO-B inhibition between IP and NAS” value was “no significant difference”. In addition, on MAO-B [3] (FIG. 4), the “differences in liver MAO-B inhibition between IP and NAS” value was “No significant differences”. Further, the “MAO-A activity in striatum and hippocampus, dose dependence” value on MAO-A [4] (intranasal powder formulation, 0.24, 0.6, 1.5 and 6 mg/kg, FIG. 6) was “dose-dependently inhibited”. On MAO-A [4] (intranasal, 0.6 mg/kg, FIG. 5), the “striatal MAO-A inhibition, powder compared to liquid formulation” value was “significant higher inhibition”. Also, the inhibition at 6 mg/kg at MAO-A [4] (read-out: MAO-A inhibition in striatum and hippocampus, intranasal, 6 mg/kg powder formulation) was > 90%; on MAO-A [4] (read-out: MAO-A inhibition, Brain, intranasal, 6 mg/kg liquid formulation, 4 h), 91%; on MAO-A [4] (read-out: MAO-A inhibition, Intestine, intranasal, 6 mg/kg liquid formulation, 4 h), 86%; on MAO-A [4] (read-out: MAO-A inhibition, Intestine, intranasal, 6 mg/kg powder formulation, 4 h), 92%; at MAO-A [4] (read-out: MAO-A inhibition, Liver, intranasal, 6 mg/kg liquid formulation, 4 h), 83%; at MAO-A [4] (read-out: MAO-A inhibition, Striatum, intranasal, 6 mg/kg powder formulation, 4 h), 98%. Besides, the inhibition at 6 mg/kg at MAO-B [5] (rat, inhaled or nasal, read-out: MAO-B Inhibition, Intestine, intranasal, 6 mg/kg liquid formulation, 4 h) is 75%; on MAO-B [5] (rat, inhaled or nasal, read-out: MAO-B Inhibition, Intestine, intranasal, 6 mg/kg powder formulation, 4 h) it was 78%. Besides, the inhibition at 0.6 mg/kg worked out at 33% at MAO-A [4] (read-out: MAO-A inhibition, Brain, intranasal, 0.6 mg/kg liquid formulation, 4 h); 44% at MAO-A [4] (read-out: MAO-A inhibition, Brain, intranasal, 0.6 mg/kg powder formulation, 4 h); 32% at MAO-A [4] (read-out: MAO-A inhibition, Intestine, intranasal, 0.6 mg/kg liquid formulation, 4 h); 42% at MAO-A [4] (read-out: MAO-A inhibition, Intestine, intranasal, 0.6 mg/kg powder formulation, 4 h); 19% at MAO-A [4] (read-out: MAO-A inhibition, Liver, intranasal, 0.6 mg/kg liquid formulation, 4 h); 44% at MAO-A [4] (read-out: MAO-A inhibition, Liver, intranasal, 0.6 mg/kg powder formulation, 4 h). Also, the inhibition at 0.6 mg/kg at MAO-A [4] (read-out: MAO-A inhibition, Striatum, intranasal, 0.6 mg/kg powder formulation, 4 h) is 61%; at MAO-B [5] (rat, inhaled or nasal, read-out: MAO-B Inhibition, Intestine, intranasal, 0.6 mg/kg liquid formulation, 4 h), 63%; on MAO-B [5] (rat, inhaled or nasal, read-out: MAO-B Inhibition, Intestine, intranasal, 0.6 mg/kg powder formulation, 4 h), 68%. Also, the inhibition at 1.5 mg/kg worked out at 86% on MAO-A [4] (read-out: MAO-A inhibition, Hippocampus, intranasal, 1.5 mg/kg powder formulation, 4 h); 74% on MAO-A [4] (read-out: MAO-A inhibition, Intestine, intranasal, 1.5 mg/kg powder formulation, 4 h); 72% at MAO-B [5] (rat, inhaled or nasal, read-out: MAO-B Inhibition, Intestine, intranasal, 1.5 mg/kg powder formulation, 4 h). In addition, the “MAO-B activity inhibition in striatum and hippocampus” value on MAO-B [5] (intranasal, 0.24 to 6 mg/kg, both powder and liquid formulations, p<0.05 vs vehicle) is recorded as “about 98%”; on MAO-B [7], “about 99%”. For the same compound, the “MAO-A inhibition in striatum and hippocampus, intranasal (powder) compared to oral” value on MAO-A [6] (0.24 and 0.6 mg/Kg, 4 h, FIGS. 8A-B) is given as “significantly increased”. On MAO-A [6] (0.24 and 0.6 mg/kg, FIG. 9), the “MAO-A inhibition in the periphery (small intestine), intranasal compared to P.O.” value is “significantly lower”. Further, in data set [8] (10 mg/kg oral dose), the “cheese reaction (MAO-A and MAO-B both inhibited)” value is reported as “induces the “cheese reaction””. Besides, the “potentiation of pressor responses to oral tyramine” value in data set [8] (21 days chronic treatment, oral doses up to 2 mg/kg daily) was “does not potentiate”; in data set [8] (single oral doses up to 5 mg/kg), “does not potentiate”.
